Source: PubChem BioAssay (NCI)
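The compound was tested at five concentrations on cells cultured in 96-well plates, with a 48-hour exposure period. Definition used: TGI = concentration required for complete inhibition of growth.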

Tests used:
Assay in all cases: NCI-60 cell line screen, 48 h
[1] = system: HOP-92 NSCLC
[2] = system: UACC-62 melanoma
[3] = system: MOLT-4 leukemia
[4] = system: LOX IMVI melanoma
[5] = system: MDA-MB-231 breast
[6] = system: PC-3 prostate
[7] = system: SNB-75 CNS
[8] = system: SK-MEL-2 melanoma
[9] = system: IGROV1 ovarian
[10] = system: HS 578T breast

Compound	TGI [1]	TGI [2]	TGI [3]	TGI [4]	TGI [5]	TGI [6]	TGI [7]	TGI [8]	TGI [9]	TGI [10]
CC(C)[Si](OC1=C(C(=O)N(C)c2cccc(Cl)c2)CCCC1)(C(C)C)C(C)C	25.4 µM	30.8 µM	> 100 µM	32.6 µM	34.6 µM	24 µM	22.8 µM	33.2 µM	32.3 µM	30.3 µM
CCOC(=O)C(=Cc1[nH]c2ccccc2c1-c1c[nH]c2ccccc12)C(=O)OCC	23.5 µM	19.4 µM	> 100 µM	26.7 µM	39.3 µM	25 µM	26.4 µM	29.6 µM	24.8 µM	91.3 µM
C[C@]12CCC(=O)O[C@H]1CCCCO2	71.1 µM	> 100 µM	> 100 µM	> 100 µM	> 100 µM	> 100 µM	> 100 µM	> 100 µM	> 100 µM	> 100 µM
CCN(CC)C(=S)N/N=C(/C)c1cccc(/C(C)=N\NC(=S)N(CC)CC)n1	7.74 µM	8.15 µM	5.77 µM	7.36 µM	7.64 µM	17 µM	10.2 µM	20.3 µM	8.08 µM	> 100 µM
O=c1cc(-c2ccc(F)cc2)[nH]c2ncc(Cl)cc12	65.4 µM	> 100 µM	> 85.6 µM	> 100 µM	> 100 µM	> 100 µM	48.7 µM	> 100 µM	> 100 µM	85 µM
Cc1ccc(/C=C2\CCCc3ccccc3C2=O)cc1	72.4 µM	29.2 µM	52.8 µM	30 µM	36.9 µM	> 100 µM	> 100 µM	9.07 µM	49.2 µM	30.8 µM
CC(=O)OC(/C=C/c1ccccc1)=C(OC(C)C)/C1=C(\c2ccccc2)SCCCSC1=O	> 100 µM	> 100 µM	> 100 µM	> 100 µM	> 100 µM	> 100 µM	> 100 µM	> 100 µM	–	> 100 µM
O=C(N/N=C\c1cccc2c([N+](=O)[O-])cccc12)Nc1ccccc1	30.4 µM	24.4 µM	41.7 µM	25.4 µM	49.4 µM	32.7 µM	> 100 µM	18.2 µM	40.1 µM	33.5 µM
CCOc1cn(C2CC(O)C(CO)O2)c(=O)[nH]c1=O (stereo not drawn)	> 100 µM	> 100 µM	> 100 µM	> 100 µM	> 100 µM	> 100 µM	> 100 µM	> 100 µM	> 100 µM	> 100 µM
O=C1CSC(c2cccc(Oc3ccccc3)c2)N1c1ccc(Cl)cc1 (stereo not drawn)	65.7 µM	34.2 µM	56.1 µM	50.9 µM	> 100 µM	> 100 µM	95.8 µM	40.2 µM	–	> 100 µM
COc1ccc(C2OC[C@H]3O[C@@H](OCc4ccccc4)[C@H](O)[C@@H](O)[C@@H]3O2)cc1 (stereo partly drawn)	> 100 µM	> 100 µM	> 100 µM	> 100 µM	> 100 µM	> 100 µM	> 100 µM	> 100 µM	> 100 µM	> 100 µM
CCOCc1nc2c(OC)cc(-c3nc4ccc(N5CCN(C)CC5)cc4[nH]3)c(OC)c2[nH]1	> 100 µM	34.6 µM	76.6 µM	42.3 µM	81.9 µM	> 100 µM	87.1 µM	40.6 µM	> 100 µM	> 100 µM
COc1ccccc1/C=C1\SC(=S)N(/C=C2\C(=O)Oc3ccccc3C2=O)C1=O	64.8 µM	64 µM	> 100 µM	> 100 µM	47.7 µM	> 100 µM	55.6 µM	59.4 µM	> 100 µM	> 100 µM
CCOC(=O)N/N=C(/N)c1cccc([N+](=O)[O-])c1	> 100 µM	> 100 µM	> 100 µM	> 100 µM	> 100 µM	> 100 µM	> 100 µM	> 100 µM	> 100 µM	> 100 µM
N=C(N)c1ccc(C(NC(=O)CNS(=O)(=O)c2ccc3ccccc3c2)P(=O)(Oc2ccccc2)Oc2ccccc2)cc1 (stereo not drawn)	> 100 µM	> 100 µM	92.4 µM	> 100 µM	> 100 µM	> 100 µM	> 100 µM	> 100 µM	> 100 µM	> 100 µM
O=C1C(CN2CCCCC2)CCC1CN1CCCCC1 (stereo not drawn)	54.6 µM	32.3 µM	3.79 µM	31.7 µM	42.3 µM	> 57.6 µM	> 75.6 µM	52.6 µM	49.7 µM	> 73.2 µM
CC(=O)OCC12C(=O)C[C@@H](C)C3(CC(c4ccoc4)OC3=O)C1CCC(OC(C)=O)C21CO1 (stereo partly drawn)	> 100 µM	> 100 µM	> 100 µM	> 100 µM	> 100 µM	> 100 µM	> 100 µM	> 100 µM	> 100 µM	> 100 µM
